According to US20240109881A1, “Heteroaryl Compounds as Ligand Directed Degraders of IRAK4” (Bristol-Myers Squibb Company, priority 2022, published 2024):
Counter-ions that a name gives are not always drawn.

Key:
IRAK4 [1] = target: T1, IRAK4 (Homo sapiens, UniProt Q9NWZ3); assay: LVL THP1 HTRF (THP1 Homogeneous Time Resolved Fluorescence); assay type: cell-based; conditions: THP1 cells, 18 h incubation with compound
T1 construct: endogenous in cells; host or cells: THP-1 cells
T1 sequence (Q9NWZ3 1-460): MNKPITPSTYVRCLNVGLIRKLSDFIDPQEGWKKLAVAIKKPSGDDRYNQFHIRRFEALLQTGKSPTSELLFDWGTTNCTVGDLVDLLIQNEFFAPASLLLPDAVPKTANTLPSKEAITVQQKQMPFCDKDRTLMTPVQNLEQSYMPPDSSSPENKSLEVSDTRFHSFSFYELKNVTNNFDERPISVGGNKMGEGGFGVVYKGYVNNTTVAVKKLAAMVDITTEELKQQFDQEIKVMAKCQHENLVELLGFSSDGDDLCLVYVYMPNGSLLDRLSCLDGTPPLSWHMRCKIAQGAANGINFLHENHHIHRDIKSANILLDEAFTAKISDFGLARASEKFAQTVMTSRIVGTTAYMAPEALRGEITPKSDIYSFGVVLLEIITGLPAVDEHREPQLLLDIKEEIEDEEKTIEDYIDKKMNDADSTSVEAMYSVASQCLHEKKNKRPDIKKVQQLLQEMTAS
In short: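 THP-1 cells in phenol red-free RPMI with 10% FBS were dosed with compound (20 nL in DMSO) for 18 h at 37° C. After 2 h lysis, IRAK4 was detected with anti-IRAK4-d2/anti-IRAK4-K HTRF antibodies for 18 h at room temperature and read at 665/615 nm; a parallel CTG plate was run.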

IRAK4 [2] = target: T1, IRAK4; assay: ALE THP1 HTRF (Advanced Lipoxidation End Product THP1 Homogeneous Time Resolved Fluorescence); assay type: cell-based; conditions: THP1 cells
In short: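 Cells lysed 45 min at room temperature; lysates normalized to total protein by BCA. Total IRAK4 detected by HTRF sandwich (anti-IRAK4-d2 plus anti-IRAK4-cryptate), incubated overnight in the dark at room temperature, read on a time-resolved fluorescence plate reader.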

[3] = Pharmacokinetic studies in mice (plasma PK, IV and PO); assay type: in vivo; conditions: female C57B16 mice
Procedure: Due to the higher molecular weight and lipophilicity, targeted protein degraders generally occupy a physiochemical property space that is beyond Lipinski's rule of 5 and as consequence are expected to have poor oral bioavailability and overall pharmacokinetic properties. […] The plasma pharmacokinetics (PK) of P-394, P-155, P-139, and P-160 were characterized in female C57B16 mice following intravenous (IV; 0.5 mg/kg) administration. Plasma from the tail vein was withdrawn in composite fashion: one group of mice (n=3) provided samples at 2 min, 30 min, 2 h, and 8 h, while another group (n=3) provided samples at 15 min, 1 h, 4 h, and 24 h. The concentrations of test article in these samples were measured using reverse-phase LC-MS-MS and then plotted as a function of time. The resulting concentration-time data was processed using noncompartmental analysis for the calculation of clearance (Cl), volume of distribution at steady state (Vss), half-life, mean residence time (MRT) and area under the time curve (AUC).
Similarly, the PK was characterized following oral (PO; 3 mg/kg) administration. Again, plasma from the tail vein was withdrawn in composite fashion: one group of mice (n=3) provided samples at 15 min, 1 h, 4 h, and 8 h, while another group (n=3) provided samples at […], 2 h, and 24 h. Oral bioavailability (FPO) was calculated by comparing the results of the studies described, dividing the dose-normalized AUCLAST,PO by the dose-normalized AUCLAST,IV.

[4] = mouse, 0.5 mg/kg, IV 0.50 mg/kg, plasma

In the case of `C[C@H](C#N)Nc1cc(-n2ncc3cc(C#N)c(N)nc32)ncc1-n1cc([C@H]2CC[C@H](CCN3CCN(c4ccc(C5CCC(=O)NC5=O)cc4)CC3)CC2)nn1` (stereo partly drawn) [P-160, 6-amino-1-(4-(((R)-1-cyanoethyl)amino)-5-(4-((1r,4R)-4-(2-(4-(4-(2,6-dioxopiperidin-3-yl)phenyl)piperazin-1-yl)ethyl)cyclohexyl)-1H-1,2,3-triazol-1-yl)pyridin-2-yl)-1H-pyrazolo[3,4-b]pyridine-5-carbonitrile, TFA], the “LVL THP1 HTRF YMIN” value (IRAK4 [1]) is reported as 0.7%, the DC50 (IRAK4 [1]; read-out: LVL THP1 HTRF EC50) is reported as 4 nM and the “ALE THP1 HTRF YMIN” value (IRAK4 [2]) is reported as 5.8%. For the same compound, the EC50 (IRAK4 [2]) was 4 nM, the FPO ([3]; PO 3.0 mg/kg vs IV 0.50 mg/kg, dose-normalized AUCLAST) was 31.6% and the AUC(0-t) [3, 4] was 0.739 µM·h. The MRT [3, 4] was 3.8 h, the half-life [3, 4] was 3.2 h and the clearance ([3]; mouse, 0.5 mg/kg, IV 0.50 mg/kg, plasma, read-out: Clp) was 14.9 mL/min/kg. It also gave a Vd ([3]; mouse, 0.5 mg/kg, IV 0.50 mg/kg, plasma, read-out: VSS) of 3.37 L/kg, an AUC(0-t) ([3]; mouse, PO 3.0 mg/kg, plasma) of 1.4 µM·h and a Cmax ([3]; mouse, PO 3.0 mg/kg, plasma) of 245 nM. The Tmax ([3]; mouse, PO 3.0 mg/kg, plasma) was 2 h.
